# Reference: patent publication US4992420A, “Dental anti-plaque and anti-caries agent” (priority 1987, dated 1991)
# Key:
# S. sanguis OMZ 9 [1] = experiment: microbe, parasite or virus in culture; settings: Streptococcus, OMZ9, 4 h, read-out: Inhibition (%) of adhesion to plastic tubes, S. sanguis OMZ 9
# S. mutans OMZ 176 = experiment: Inhibition of bacterial adhesion to plastic (polypropylene) tubes, S. mutans; settings: for inhibition at 1000 µg/mL: Streptococcus mutans, OMZ176, 4 h, read-out: Inhibition (%) of adhesion to plastic tubes, S. mutans OMZ 176; for Inhibition (%) of adhesion to plastic tubes, S. mutans OMZ 176: 1 mg/ml, 4 h
# A. viscosus OMZ 105 [2] = experiment: microbe, parasite or virus in culture; settings: Actinomyces viscosus, OMZ105, 4 h, read-out: Inhibition (%) of adhesion to plastic tubes, A. viscosus OMZ 105
# A. viscosus OMZ 105 [3] = system: A. viscosus OMZ 105
# A. naeslundii ATCC 12104 = settings: desialylated human erythrocytes (A+); no control of bacterial growth phase; none = no inhibition up to 20 mg/ml
# A. viscosus OMZ 206 = experiment: Inhibition of bacterial adhesion to plastic (polypropylene) tubes, A. viscosus OMZ 206; settings: Actinomyces viscosus, OMZ206, 4 h, read-out: Inhibition (%) of adhesion to plastic tubes, A. viscosus OMZ 206
# S. sanguis OMZ 9 [4] = settings: for Inhibition (%) of adhesion to plastic tubes, S. sanguis OMZ 9: 1 mg/ml, 4 h; for Inhibitory effect on adhesion to plastic tubes (in words), S. sanguis OMZ 9: preliminary tests
# A. viscosus OMZ 105 [5] = settings: for Inhibition (%) of adhesion to plastic tubes, A. viscosus OMZ 105: 1 mg/ml, 4 h; for Inhibitory effect on adhesion to plastic tubes (in words), A. viscosus OMZ 105: preliminary tests
molecule,measurement,setting,value
O=C[C@H](O)[C@@H](O)[C@@H](O)[C@H](O)CO [Galactose],inhibition at 1000 µg/mL,S. sanguis OMZ 9 [1],12%
same,inhibition at 1000 µg/mL,S. mutans OMZ 176,4%
same,inhibition at 1000 µg/mL,A. viscosus OMZ 105 [2],12%
OC[C@H]1O[C@@H](O[C@H]2[C@H](O)[C@@H](O)C(O)O[C@@H]2CO)[C@H](O)[C@@H](O)[C@H]1O (stereo partly shown) [Lactose],inhibition at 1000 µg/mL,S. sanguis OMZ 9 [1],12%
same,"Minimum concentration resulting in complete inhibition of hemagglutination, expressed in galactoside equivalents/ml","A. viscosus OMZ 105 [3]; A. viscosus OMZ harvested in the exponential phase, desialylated human erythrocytes (A+)",> 10 mg/mL
same,"Minimum concentration resulting in complete inhibition of hemagglutination, expressed in dry weight/ml","A. viscosus OMZ 105 [3]; A. viscosus OMZ harvested in the exponential phase, desialylated human erythrocytes (A+), none = no inhibition up to 20 mg/ml",none
same,"Minimum concentration resulting in complete inhibition of hemagglutination, A. viscosus OMZ 105","A. viscosus OMZ 105 [3]; desialylated human erythrocytes (A+), no control of bacterial growth phase, none = no inhibition up to 20 mg/ml",none
same,Inhibition of hemagglutinations governed by type 2 pili (in words),A. viscosus OMZ 105 [3]; summary of Tables I and II,completely ineffective
same,inhibition at 1000 µg/mL,S. mutans OMZ 176,4%
same,"Minimum concentration resulting in complete inhibition of hemagglutination, A. naeslundii ATCC 12104",A. naeslundii ATCC 12104,none
same,inhibition at 1000 µg/mL,A. viscosus OMZ 206,15%
same,inhibition at 1000 µg/mL,A. viscosus OMZ 105 [2],14%
COC1OC(CO)C(O)C(O)C1O (stereo not drawn) [Methyl α mannoside],"Inhibition (%) of adhesion to plastic tubes, S. mutans OMZ 176",S. mutans OMZ 176,3%
same,"Inhibition (%) of adhesion to plastic tubes, S. sanguis OMZ 9",S. sanguis OMZ 9 [4],11%
same,"Inhibition (%) of adhesion to plastic tubes, A. viscosus OMZ 105",A. viscosus OMZ 105 [5],10%
O=C[C@H](O)[C@@H](O)[C@H](O)[C@H](O)CO [glucose],"Inhibitory effect on adhesion to plastic tubes (in words), S. sanguis OMZ 9",S. sanguis OMZ 9 [4],nonactivity
same,"Inhibitory effect on adhesion to plastic tubes (in words), A. viscosus OMZ 105",A. viscosus OMZ 105 [5],nonactivity
NCC(=O)O [glycine],"Inhibitory effect on adhesion to plastic tubes (in words), S. sanguis OMZ 9",S. sanguis OMZ 9 [4],nonactivity
same,"Inhibitory effect on adhesion to plastic tubes (in words), A. viscosus OMZ 105",A. viscosus OMZ 105 [5],nonactivity
Polyglutamic acid,"Inhibition (%) of adhesion to plastic tubes, S. mutans OMZ 176",S. mutans OMZ 176,20%
same,"Inhibition (%) of adhesion to plastic tubes, S. sanguis OMZ 9",S. sanguis OMZ 9 [4],6%
same,"Inhibition (%) of adhesion to plastic tubes, A. viscosus OMZ 105",A. viscosus OMZ 105 [5],22%
Polylysine,"Inhibition (%) of adhesion to plastic tubes, S. mutans OMZ 176",S. mutans OMZ 176,30%
same,"Inhibition (%) of adhesion to plastic tubes, S. sanguis OMZ 9",S. sanguis OMZ 9 [4],12%
same,"Inhibition (%) of adhesion to plastic tubes, A. viscosus OMZ 105",A. viscosus OMZ 105 [5],46%
